Reference: patent publication US12435039B2, “Activators of caspase-8/c-FLIPL dimerization and their use in cancer therapy” (priority 2018, dated 2025)

Assays:
caspase-8 at the DISC = test: Caspase-8 activity assay on CD95 DISC-IPs (Caspase-Glo 8); assay type: biochemical, human; conditions: CD95 DISC-IPs from HeLa-CD95 cells; 20 μM FLIPinBγ two hours, CD95L 60 ng/mL three hours
Method: CD95 DISC-IP—The CD95 DISC-IP (Immunoprecipitation) from 5×10^6 HeLa-CD95 cells were done as described before (Pietkiewicz et al., 2015). In addition, DISC-IPs were washed four times with PBS, which was followed by Western Blot analysis or caspase-8 activity assays.
Caspase-8 activity assay—Each of protein A beads samples with CD95 DISC-IPs were resuspended in 95 μL of CHAPS-Buffer (50 mM HEPES pH=7.2; 50 mM NaCl; 10 mM EDTA; 5% Glycerin; 10 mM DTT, 0.1% CHAPS) and transferred into a 96-well plate. Caspase-8 activity was measured according to manufacturer's instructions (Caspase-Glo® 8 Assay, Promega, Germany). Every condition was performed in duplicate. The luminescence intensity was analyzed by a microplate reader Infinite M200pro (Tecan, Switzerland).

HeLa-CD95 cells [1] = test: Cell death detection using IncuCyte live cell imaging (Cytotox Red); assay type: cell-based; conditions: 40 μM FLIPinBγ two hours
Method: Cell death detection using IncuCyte™ live cell imaging—HeLa-CD95 cells in a 96 well plate (5×10^3 cells/well) were pre-incubated with FLIPinBγ for 2 hours. […] To monitor cell death, cells were treated with IncuCyte™ Cytotox Red Reagent (1:4000) and Caspase-3/7 Green Apoptosis Assay Reagent (1:5000). The cells were imaged every hour by IncuCyte® ZOOM (Essen BioScience, Michigan) with a […] objective for a period of 6 hours. Every condition was performed in triplicate. Data were analyzed by the IncuCyte® ZOOM Software (2016A).

[2] = system: caspase-3/7 in HeLa-CD95 cells; test: Caspase-3/7 activity by IncuCyte live cell imaging (Caspase-3/7 Green); assay type: cell-based, human
c-FLIPL = test: Western Blot time-dependent analysis of c-FLIPL levels; assay type: cell-based, human; conditions: HeLa-CD95 cells; 20 μM FLIPinBγ up to 16 hours; first hours after administration
Method: (§1) Analysis of total cell lysates by Western Blot analysis—The Western Blot analysis of total cellular lysates was performed in accordance to the inventors' previous reports (Schmidt et al., 2015).

[3] = system: HeLa-CD95-FL cells (CD95/c-FLIPL-overexpressing); test: Cell viability quantification by ATP assay (CellTiter-Glo), HeLa-CD95-FL cells; assay type: cell-based, human
From the text: (§2) Cell lines—Human cervical cancer HeLa-CD95 cells (Neumann et al., 2010) (CD95-overexpressing cells) and HeLa-CD95-FL cells (CD95/c-FLIPL-overexpressing cells) were maintained in DMEM/Ham's (Merck Millipore, Germany) supplemented with 10% heat-inactivated fetal calf serum, 1% Penicillin-Streptomycin and 0.0001% Puromycin in 5% CO2. Human acute myeloid leukemia MV-4-11 cells and T lymphoma Jurkat cells were maintained in RPMI 1640 (Thermo Fisher Scientific Inc., USA) supplemented with 10% heat-inactivated fetal calf serum and 1% Penicillin-Streptomycin in 5% CO2.
(§3) Cell viability quantification by ATP assay—50 μL of the CellTiter-Glo® solution was added to each well and measurements were performed according to manufacturer's instructions (CellTiter-Glo® Luminescent Cell Viability Assay, Promega, Germany). The luminescence intensity was analyzed by a microplate reader Infinite M200pro (Tecan, Switzerland). The viability of untreated cells was taken as one relative unit (RU). Every condition was performed in duplicate.

Jurkat cells = test: Cell viability quantification by ATP assay (CellTiter-Glo), Jurkat cells; assay type: cell-based, human
From the text: as §2, §3

HeLa-CD95 cells [4] = test: Cell viability quantification by ATP assay (CellTiter-Glo), HeLa-CD95 cells; assay type: cell-based, human
From the text: as §2, §3

[5] = system: caspase-3/7 in Jurkat cells; test: Caspase-3/7 activity assay (Caspase-Glo 3/7), Jurkat cells; assay type: cell-based, human
Method: Caspase-3/7 activity assay—Caspase activity was measured by adding 50 μL of the Caspase-Glo®3/7 solution to each well. The luminescence intensity was analyzed by a microplate reader Infinite M200pro (Tecan, Switzerland) according to manufacturer's instructions (Caspase-Glo® 3/7 Assay, Promega, Germany). The caspase activity of non-treated cells was taken as one relative unit (RU). Every condition was performed in duplicate.

MV-4-11 cells = test: Cell viability quantification by ATP assay (CellTiter-Glo), MV-4-11 cells; assay type: cell-based, human; conditions: FLIPinBγ two hours, then CD95L 1000 ng/mL for 6 hours
From the text: as §2, §3

[6] = system: procaspase-8, RIPK1 and PARP cleavage in HeLa-CD95 cells; test: Western Blot analysis of total cellular lysates, CD95L-induced cleavage; assay type: cell-based, human; conditions: 20 μM FLIPinBγ two hours, CD95L 60 ng/mL three hours
Method: as §1

[7] = system: caspase activity in HeLa-CD95 cells; test: Caspase activity in HeLa-CD95 cells (FLIPinB); assay type: cell-based, human; conditions: FLIPinB with CD95L/TRAIL

O=C(NCCOC(=O)c1cccc(S(=O)(=O)NCc2cccnc2)c1)c1ccc(-c2ccncc2)cc1 [FLIPinBγ, 2-[[4-(4-pyridyl)benzoyl]amino]ethyl 3-(3-pyridylmethylsulfamoyl)benzoate]
caspase-8 activity at the DISC (caspase-8 at the DISC): increased
CD95L-induced cell death (Cytotox Red live cell imaging) (HeLa-CD95 cells [1]; CD95L 50 ng/mL, in the first hours): enhanced
TRAIL-induced cell death (Cytotox Red live cell imaging) (HeLa-CD95 cells [1]; TRAIL 100 ng/mL, most prominent in the first hours): enhanced
caspase-3/7 activity in single cells, FLIPinBγ/TRAIL co-administration [2]: increase
caspase-3/7 activity in single cells, FLIPinBγ/CD95L co-administration ([2]; 40 μM FLIPinBγ two hours, CD95L 50 ng/mL): increase
influence on c-FLIPL expression (c-FLIPL): no influence
relative efficiency across cell lines ([3]; HeLa-CD95-FL cells overexpressing c-FLIPL): most efficient
CD95L-induced loss of cell viability ([3]; HeLa-CD95-FL cells, FLIPinBγ two hours, then CD95L 238 ng/mL for 6 hours): efficiently promoted a loss of cell viability in a dose- and time-dependent manner
CD95L-induced loss of cell viability (Jurkat cells; FLIPinBγ two hours, then CD95L 60 ng/mL for 6 hours): efficiently promoted a loss of cell viability in a dose- and time-dependent manner
CD95L-induced loss of cell viability (HeLa-CD95 cells [4]; FLIPinBγ two hours, then CD95L 60 ng/mL for 22 hours): efficiently promoted a loss of cell viability in a dose- and time-dependent manner
caspase-3/7 activity, FLIPinBγ/CD95L co-treatment ([5]; 20 μM FLIPinBγ two hours, CD95L 60 ng/mL four hours): increase
caspase-3/7 activity, FLIPinBγ/TRAIL co-treatment ([5]; 20 μM FLIPinBγ two hours, TRAIL 100 ng/mL three hours): increase
CD95L-induced loss of cell viability (MV-4-11 cells): efficiently promoted a loss of cell viability in a dose- and time-dependent manner
CD95L-induced RIPK1 cleavage [6]: slight increase
CD95L-induced cleavage of PARP [6]: increases
CD95L-induced cleavage of procaspase-8 to p18 [6]: increases

O=C(NCCOC(=O)c1cccc(S(=O)(=O)NCc2ccccc2)c1)c1ccc(-c2ccccc2)cc1 [FLIPinB, 2-[(4-phenylbenozyl)amino]ethyl 3-(benzylsulfamoyl)benzoate]
caspase activity [7]: increased
resistance of HeLa-CD95-FL cells to CD95L ([3]; HeLa-CD95-FL cells, FLIPinB plus CD95L): allowed to overcome the resistance
initial experimental screening of FLIPins: viability upon FLIPin/CD95L vs CD95L-only (Jurkat cells): showed the best properties in the initial selection
CD95L-induced loss of cell viability (Jurkat cells; FLIPinB plus CD95L vs CD95L only): enhanced
TRAIL-induced loss of cell viability (Jurkat cells; FLIPinB plus TRAIL): enhanced
CD95L-induced loss of cell viability (HeLa-CD95 cells [4]; FLIPinB plus CD95L): enhanced
TRAIL-induced loss of cell viability (HeLa-CD95 cells [4]; FLIPinB plus TRAIL): enhanced
caspase activity ([5]; FLIPinB with CD95L/TRAIL): increased
